Series [1] deals with T1, FOXM1 (Homo sapiens, UniProt Q08050).
T1 sequence (Q08050 1-763): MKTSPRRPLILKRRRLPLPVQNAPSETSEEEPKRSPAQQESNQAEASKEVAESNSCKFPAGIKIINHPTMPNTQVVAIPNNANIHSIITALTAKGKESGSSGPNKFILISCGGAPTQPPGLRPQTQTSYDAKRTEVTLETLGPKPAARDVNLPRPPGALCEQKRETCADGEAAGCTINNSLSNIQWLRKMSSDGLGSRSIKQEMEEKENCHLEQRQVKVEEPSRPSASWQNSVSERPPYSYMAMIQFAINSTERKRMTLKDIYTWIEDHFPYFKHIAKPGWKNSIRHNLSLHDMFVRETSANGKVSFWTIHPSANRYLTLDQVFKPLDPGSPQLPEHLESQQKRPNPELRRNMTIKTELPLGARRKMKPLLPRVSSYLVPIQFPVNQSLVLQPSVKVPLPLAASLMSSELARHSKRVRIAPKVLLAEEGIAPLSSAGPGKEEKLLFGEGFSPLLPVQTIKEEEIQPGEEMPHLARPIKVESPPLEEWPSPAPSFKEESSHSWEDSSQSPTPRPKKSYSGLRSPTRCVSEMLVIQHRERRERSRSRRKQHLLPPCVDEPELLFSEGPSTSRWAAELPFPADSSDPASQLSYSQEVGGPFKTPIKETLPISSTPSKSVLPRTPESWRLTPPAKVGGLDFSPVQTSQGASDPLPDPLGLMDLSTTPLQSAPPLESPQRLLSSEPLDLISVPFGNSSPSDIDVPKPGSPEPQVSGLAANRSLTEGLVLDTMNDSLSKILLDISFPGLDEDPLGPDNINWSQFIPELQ
Briefly: FOXM1 protein levels by immunoblotting in leukemia/AML cell lines. Particulars: KG-1 cells; for effect on FOXM1 protein levels suppressed by STL001: co-treatment with STL001, 24 h. More on the design: Total protein samples obtain from treated cells were analyzed for FOXM1 protein levels via immunoblotting; endogenous in cells; host or cells: KG-1, HL-60, K562, THP-1 leukemia cell lines. The series is classed as cell-based. The procedure:
[a] Leukemia cells, KG-1, HL-60 and K562 were treated with increasing concentrations of STL427944 for 24 hrs. […] [b] THP1 and KG-1 cells were treated with indicated concentrations of venetoclax and STL427944 alone or in combination for 24 hrs. [c] KG-1 and K562 cells were treated with indicated concentrations of cytarabine and STL427944 alone or in combination for 24 hrs.
FIG. 8. STL427944 treatment of human leukemia cell lines suppress FOXM1 protein expression. (a) STL427944 treatment of human leukemia cell lines inhibit FOXM1 protein expression and sensitize cells to venetoclax treatment. […] (b) Stable shRNA-mediated FOXM1 knockdown prominently sensitizes KG-1 cells to cytotoxic effect of venetoclax. (c, d) combined treatment with STL427944 and venetoclax suppresses FOXM1 in KG-1 and THP-1 cells and synergistically promotes cytotoxic effects similarly to FOXM1 knockdown. Total protein was isolated from cells immediately after the treatment and analyzed via immunoblotting with FOXM1 antibodies). Apoptosis induction was estimated based on caspase-3 cleavage.
FIGS. 9A and 9B: Novel FOXM1 inhibitor STL001 sensitizes Leukemia cells to chemotherapy agents. [a] Structural formula of novel FOXM1 inhibitor STL001. [b] Leukemia cells, KG-1, HL-60, and K562 were treated with increasing concentrations of STL001 for 24 hrs. […] [c] KG-1 cells were treated with indicated concentrations of Laptomycin B, Chloroquine, and STL001 for 24 hrs. […] [d] KG-1, HL-60, and K562 cells were treated with indicated concentrations of venetoclax and STL001 alone or in combination for 24 hrs. [e] KG-1, HL-60, and K562 cells were treated with indicated concentrations of cytarabine and STL alone or in combination for 24 hrs.
FIGS. 13A-13H STL001 is a novel FOXM1 inhibitor that sensitizes leukemia cells to standard cytotoxic and bcl2 inhibitor therapies. FIG. 13A AML cell line KG-1 treated with precursor compound STL427944. FIG. 3B AML cell lines KG-1, HL-60, and K562 were treated with increasing concentrations of STL001 for 24 h. Total protein samples obtained from treated cells were analyzed for FOXM1 protein levels using immunoblotting; β-actin was used as the internal loading control. FIG. 13C KG-1, HL-60, and K562 cells were treated with indicated concentrations of venetoclax and STL001 alone or in combination for 24 h. FIG. 13D KG-1, HL-60, and K562 cells were treated with indicated concentrations of cytarabine and STL001 alone or in combination for 24 h. […] FIG. 13E KG-1 cells were treated with indicated concentrations of Leptomycin B, Chloroquine, and STL001 for 24 h. Total protein samples obtained from treated cells were analyzed for FOXM1 protein levels via immunoblotting; β-actin was used as an internal loading control. FIG. 13F KG-1 cell lines with shRNA knockdown of FOXM1 were treated with venetoclax and STL001 and compared to parental cells. FIG. 13G Real-time PCR-based expression profiling for canonical FOXM1 target genes was performed on primary AML mononuclear cells (n=5) treated ex vivo with STL001 5 μM for 24 h. Mean and standard error of the delta Ct for DMSO or treatment group are plotted for each gene. P-value is estimated by two-tailed paired t-test. Asterisks denote P<0.05. FIG. 13H Treatment of peripheral blood mononuclear cells with STL001 for 24 h followed by immunohistochemistry for FOXM1. Slides were scanned on an Aperio AT2 brightfield scanner and images were analyzed using HALO 2.0 software. Hematoxylin counterstain was used to segment nuclei within the ROIs and to establish an accurate cell count. Percent cells with nuclear FOXM1 expression compared between DMSO and STL001 treated cells. P-value is based on one-tailed paired t-test.

Series [2] addresses T1, FOXM1. Put plainly: FOXM1 protein levels by immunoblotting in solid cancer cell lines.
Description: Cell culture: Human cell lines LNCaP and 22Rv1 (human prostate carcinoma), OVCAR8 and ES-2 (High-grade serous ovarian cancer, HGSOC), HCT-116 and HCT-FET (human colorectal carcinoma), HCC-1143 (triple negative breast cancer (TNBC), TAMR (Tamoxifen resistant MCF7) human breast cancer, were provided from various investigators. LNCaP and 22Rv1 cell lines were cultured in RPMI-1640 with 2 mM L-Glutamine (Gibco; Thermo Fisher Scientific, Waltham, MA, USA). HCC-1143 cell lines were cultured in Iscove's Modified Dulbecco Medium (IMDM) with 2 mM L-Glutamine (Gibco; Thermo Fisher Scientific). OVCAR-8, ES-2, HCT-116, and HCT-FET cell lines were cultured in Dulbecco's Modified Eagle Medium (DMEM) with 4.5 g/L glucose and 4 mM L-Glutamine (Gibco; Thermo Fisher Scientific). For all cell lines, the growth media was supplemented with 10% Foetal Bovine Serum (FBS), penicillin (100 U/mL), and 100 μg/mL streptomycin (Gibco; Thermo Fisher Scientific). TAMR cells were routinely cultured in DMEM/F12 medium without phenol red (Gibco; Thermo Fisher Scientific), containing 1% charcoal-striped FBS, 2.5 mM L-Glutamine (Thermo Fisher Scientific), 6 ng/mL insulin (Millipore Sigma) and 50 nM 4-hydroxytamoxifen (4-OHT; Millipore Sigma). All cell lines were grown and maintained at 37° C. in a humidified incubator with 5% CO2. Sub-confluent cultures (70-80%) were split 1:5 using 0.25% Trypsin/EDTA (Millipore Sigma).
Drug treatment of cultured cells: After harvesting, cells were counted in presence of Trypan Blue (Thermo Fisher Scientific) and seeded onto tissue culture plates to achieve ~50% confluency. The next day, treatment of cells was performed by aspirating the nonadherent cells and growth medium and replacing it with the fresh one containing selected concentrations of drugs. For Tamoxifen based studies, the nonadherent cells and growth media was aspirated and replaced with the DMEM supplemented with 4.5 g/L glucose and 4 mM L-Glutamine, 10% FBS, penicillin (100 U/mL), 100 μg/mL streptomycin, 10 nM estrogen, and selected concentrations of drugs. […] Post-treatment at selected times, the cells were harvested, washed with ice-cold PBS and used for protein or RNA purification as described below.
Protein immunoblotting: Total protein was extracted using ice-cold radio-immunoprecipitation assay (RIPA) buffer (Millipore Sigma) supplemented with Halt protease- and phosphatise-inhibitor cocktails (Fisher Scientific), 2 mM sodium orthovanadate (New England Biolabs, Inc., USA), and 5 mM sodium fluoride (Millipore Sigma) according to the manufacturer's protocol. Protein content in each sample was estimated using Bio-Rad Protein Assay (Bio-Rad, USA). Equal amounts of protein (20-30 μg) were separated on hand-cast SDS/PAGE (6-12%) mini-protein gels and transferred to 0.2 μm Immobilon-Psq polyvinylidene difluoride (PVDF) transfer membrane (Millipore Sigma). Membranes were blocked with 4% bovine serum albumin (BSA; Millipore Sigma) in TRIS-buffered saline (TBS) with 0.1% Tween-20 (TBS-T, Thermo Fisher Scientific) and probed overnight at 4° C. with the primary antibodies (FOXM1, Cell Signaling Technology (CST), Inc., USA; Cleaved Caspase-3, CST; β-actin, Thermo Fisher Scientific) diluted according to the manufacturer's protocol. […] After incubating membranes with the secondary antibodies, the membranes were then washed three times for 10 min each with TBST. Protein bands were developed using SuperSignal™ West Pico PLUS Chemiluminescent Substrate (Thermo Fisher Scientific) and detected using ChemiDoc Imaging System (Bio-Rad).
The subject of series [3] is HCC-1143 cells. The procedure: (§1) FIG. 17. […] (A) Prostate cancer (22RV1 and LNCaP) cells were treated with indicated concentrations of paclitaxel alone or in combination with STL001 for 24 hrs. (B) Tamoxifen resistance MCF-7 breast cancer cells (TAM-R) were treated with indicated concentrations of Tamoxifen alone or in combination with STL001 for 24 hrs. In all cases, total protein samples were obtained from cells immediately after treatment and analyzed for FOXM1, cleaved caspase-3 levels via immunoblotting, β-actin was used as internal loading control (n=3). (C) Percent (%) dead cells in TAM-R cells treated with indicated concentrations of Tamoxifen alone or in combination with STL001 for 24 hrs. […] (F) HCC 143 cells with stable shRNA-mediated FOXM1 knockdown (KD) were treated with doxorubicin alone or in combination with STL001 for 24 hrs and compared to parental cells under the same treatment conditions. In all cases, total protein samples were obtained from cells immediately after treatment and analyzed for FOXM1, cleaved caspase-3 levels via immunoblotting, β-actin was used as internal loading control (n=3).
Stable FOXM1-expression knockdown in cancer cell: Cells were seeded on commercially available 12-well tissue culture plates to achieve ~40% confluency. […] Transduced cells were selected by their cultivation with puromycin (1.0 μg/mL) for 10 days and then maintained without puromycin as described above.

In series [4] the test system is 22RV1, LNCaP cells. The procedure:
as §1

Series [5] relates to TAMR cells. The series is classed as cell-based. The procedure:
as §1

In series [6] the test system is KG-1, HL-60, K562, THP-1 cells. The series is classed as cell-based. The conditions noted are these: KG-1 cells.
Series [7] concerns HCT-116 and HCT-FET cells. Briefly: Chemosensitization (caspase-3 cleavage) of colorectal cancer cells to 5′FU. The series is classed as cell-based, human. The procedure: FIG. 16. […] (A) Ovarian cancer (OVCAR-8 and ES-2) cells were treated with indicated concentrations of Doxorubicin (Doxo) alone or in combination with STL001 for 24 hrs. […] (C) colon cancer (HCT-116 and FET) cells were treated with indicated concentrations of 5′FU alone or in combination with STL001 for 24 hrs.

The subject of series [8] is NPM1c mutant AML cells. The conditions noted are these: cited from earlier work.

`CCN(CC)CCCC(C)Nc1ccnc2cc(Cl)ccc12` (centres unmarked) [Chloroquine]: the “effect on FOXM1 protein levels suppressed by STL001” value in series [1] is “rescued FOXM1 protein levels”.
For the molecule `COc1cccc2c1C(=O)c1c(O)c3c(c(O)c1C2=O)C[C@@](O)(C(=O)CO)C[C@@H]3O[C@H]1C[C@H](N)[C@H](O)[C@H](C)O1` [doxorubicin], the “cellular FOXM1 protein, DNA-damaging agent alone” value in series [2] (HCC-1143, sub-lethal concentrations) is “significantly higher levels of cellular FOXM1 protein”. In series [2] (OVCAR-8, ES-2, sub-lethal concentrations), the “FOXM1 protein abundance, chemotherapeutic alone” value was “significant increase in FOXM1 protein abundance”. The “cytotoxic effects, DNA-damaging agent alone” value in series [3] is recorded as “without showing prominent cytotoxic effects”.
With `CC(=O)O[C@H]1C(=O)[C@@]2(C)[C@H]([C@H](OC(=O)c3ccccc3)[C@]3(O)C[C@H](OC(=O)[C@H](O)[C@@H](NC(=O)c4ccccc4)c4ccccc4)C(C)=C1C3(C)C)[C@]1(OC(C)=O)CO[C@@H]1C[C@@H]2O` [paclitaxel], the “cellular FOXM1 protein levels, chemotherapeutic alone” value in series [2] (22RV1, LNCaP, sublethal concentrations) is “prominent increase in cellular FOXM1 protein levels”. Besides, the “cytotoxic effects, chemotherapeutic alone” value in series [4] was “without showing any cytotoxic effects”.
In the case of `CC/C(=C(\c1ccccc1)c1ccc(OCCN(C)C)cc1)c1ccccc1` [tamoxifen], in series [2] (TAMR cells), the “FOXM1 level, tamoxifen alone” value is reported as “FOXM1 upregulation”. Moreover, the “cell death, tamoxifen alone” value in series [5] was “without prominent cell death induction”.
In the case of `CCC(=C/[C@H](C)C/C=C/C(C)=C/[C@@H](C)C(=O)[C@@H](C)[C@H](O)[C@@H](C)C/C(C)=C/C(=O)O)/C=C/[C@@H]1OC(=O)C=C[C@@H]1C` [Leptomycin B], in series [1], the “effect on FOXM1 protein levels suppressed by STL001” value is listed as “rescued FOXM1 protein levels”.
Consider `C=C(NC(=O)C(=C)NC(=O)c1csc(C2=N[C@@H]3c4csc(n4)[C@H]4NC(=O)c5csc(n5)[C@H]([C@](C)(O)[C@@H](C)O)NC(=O)[C@H]5CSC(=N5)/C(=C/C)NC(=O)[C@H]([C@@H](C)O)NC(=O)c5csc(n5)[C@]3(CC2)NC(=O)[C@H](C)NC(=O)C(=C)NC(=O)[C@H](C)NC(=O)[C@H]([C@@H](C)CC)N[C@@H]2C=Cc3c([C@H](C)O)cc(nc3[C@H]2O)C(=O)O[C@@H]4C)n1)C(N)=O` [thiostrepton], for which, in series [1], the FOXM1 level result is “down-regulation of FOXM1”. Also, in series [6], the “apoptosis (caspase-3 cleavage) in combination with cytarabine” value is “synergistic induction of apoptosis”.
`O=c1[nH]cc(F)c(=O)[nH]1` [5′FU, 5-fluorouracil]: the “FOXM1 level, chemotherapeutic alone” value in series [2] (HCT-116 and HCT-FET) is reported as “FOXM1 upregulation”. Moreover, the “cell death, chemotherapeutic alone” value in series [7] was “without evident cell death”.
For the molecule `CC(C)C[C@H](NC(=O)[C@H](Cc1ccccc1)NC(=O)c1cnccn1)B(O)O` [bortezomib], the FOXM1 level result in series [1] is reported as “down-regulation of FOXM1”. For the same molecule, the “apoptosis (caspase-3 cleavage) in combination with cytarabine” value in series [6] is recorded as “synergistic induction of apoptosis”.
As to `CC(C)N(C(=O)c1cc(F)ccc1Oc1cncnc1N1CC2(CCN(CC3CCC(NS(C)(=O)=O)CC3)CC2)C1)C(C)C` (centres unmarked) [VTP-50469], the “leukemia development in the knock-in murine model” value in series [8] (knock-in murine model) was “prevent leukemia development”. For the same molecule, in series [8] (oral inhibitor, xenografts), the “effect on NPM1c mutant AML cells in xenografts” value is listed as “able to eradicate NPM1c mutant AML cells in xenografts”.

Source of the values: patent US20260217691A1, “FOXM1 INHIBITORS AND THEIR USE IN TREATING CANCERS” (THE BOARD OF TRUSTEES OF THE UNIVERSITY OF ILLINOIS, priority 2022, published 2026).
